Measured values taken from patent US20230202973A1, “BARNESIN A, DERIVATIVES AND USES THEREOF” (Leibniz-Institut Für Naturstoff-Forschung Und …, priority 2018, published 2023).
Read-outs that look alike come from different tables or passages of the source. Square brackets hold non-standard residues; d marks the D form. Peptide text beside a SMILES is read from it. * marks the point of attachment. Sta = CC(C)C[C@H](N)[C@@H](O)CC(=O)O; Isovaleryl = CC(C)CC(=O)*

Columns and labels:
[1] = target: T1, thermolysin (Bacillus thermoproteolyticus, UniProt P00800); assay: Protease assay with azocasein: thermolysin; format: biochemical; conditions: azocasein substrate, pH 7.2; n.i. = no inhibition
T1 construct: purchased Sigma-Aldrich P1512
Experimental: (§1) Protease Assays with azocasein: Protease inhibition assays against the proteases papain, ficin, trypsin, pepsin and thermolysin were performed according to the protocol of Garcia-Carreño (loc. cit.) in a reaction buffer containing 25 mM TRIS-HCl, 0.15 M NaCl, pH 7.2 (or pH 3.5 for aspartic protease). The total assay volume was 47 μL buffer with 2 μL of the protease as well as 1 μL of suitable inhibitor or corresponding inhibitor solvent (100% MeoH or water). Final concentration of proteases was as follows: 2 mg/mL for papain (Sigma-Aldrich, P4762), 600 μg/mL for ficin (Sigma-Aldrich, F6008), 80 μg/mL for trypsin (Thermo Fisher, 23266), 60 mg/mL for pepsin (Sigma-Aldrich P6887)) and 2 μg/mL for thermolysin (Sigma-Aldrich, P1512).
(§2) Inhibitors were dissolved in 100% MeOH or water and added to the assay (1 μL); final concentration: 2% MeOH. Samples of control inhibitors were prepared as follows: (1) serine protease (trypsin): PMFS (2 mM) and soybean trypsin inhibitor (240 μM) (Sigma-Aldrich, T1021), (2) cysteine proteases (papain and ficin): iodacetamide (2 mM), (3) […] (pepsin): pepstatin A (1 μg/mL) (Sigma-Aldrich, P4265), (4) metalloprotease (thermolysin): EDTA (10 mM). […] Negative controls were performed with protease alone (without inhibitor) and MeOH at a final concentration of 2% (reference for activity of 100%). Extract absorbance controls were performed using inhibitor (1 μL in MeOH) without protease. Blanks were performed using 49 μL buffer and 1 μL MeOH.
(§3) Samples were incubated with buffer and suitable inhibitor (or without for negative controls) for 1 h at r.t. and the reaction was started afterward by adding 50 μl of […] substrate and incubated for 1 h at 37° C. After stopping the reaction with trichloracetic acid (TCA), the separation of the precipitate was accomplished by centrifugation at 6500 g for 5 min. The hydrolyzed substrate supernatant was incubated in an equal volume of 0.5 N NaOH for 5 min and the absorbance was measured at 440 nm. OD values of the protease control without inhibitor were used as reference for a 100% activity.
(§4) The log IC50 values were determined using the standard curves analyzing tool with four parameter logistic equation of SigmaPlot12 with technical triplicates. Propagation of error was calculated using the standard error and log IC50 values where the equation of error propagation is defined as Δy=0.43Δx/x.

[2] = target: T2, trypsin (Bos taurus, UniProt P00760); assay: Protease assay with azocasein: trypsin; format: biochemical; conditions: azocasein substrate, pH 7.2; n.i. = no inhibition
T2 construct: purchased Thermo Fisher 23266
T2 sequence (P00760 24-246): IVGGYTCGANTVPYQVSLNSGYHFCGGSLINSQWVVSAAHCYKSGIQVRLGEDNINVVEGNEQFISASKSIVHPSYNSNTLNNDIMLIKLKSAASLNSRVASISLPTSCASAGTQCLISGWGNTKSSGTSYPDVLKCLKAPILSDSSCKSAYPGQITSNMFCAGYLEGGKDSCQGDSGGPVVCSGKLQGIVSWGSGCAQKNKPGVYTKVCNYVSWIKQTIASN
Experimental: as §1, §2, §3, §4

[3] = target: T3, papain (Carica papaya, UniProt P00784); assay: Protease assay with azocasein: papain; format: biochemical; conditions: azocasein substrate, pH 7.2, n.i. = no inhibition; for IC50: read-out: Papain, inhibitory activity as IC50 value
T3 construct: purchased Sigma-Aldrich P4762
T3 sequence (P00784 134-345): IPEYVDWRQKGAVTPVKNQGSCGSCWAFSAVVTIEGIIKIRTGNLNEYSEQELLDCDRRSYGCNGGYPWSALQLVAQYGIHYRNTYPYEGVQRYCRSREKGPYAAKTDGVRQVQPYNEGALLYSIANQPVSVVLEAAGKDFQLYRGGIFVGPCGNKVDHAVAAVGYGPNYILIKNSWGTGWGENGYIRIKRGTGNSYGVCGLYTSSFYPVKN
Experimental: as §1, §2, §3, §4

[4] = target: T4, Cathepsin B (Homo sapiens, UniProt P07858); assay: Cathepsin B inhibition assay (Z-Arg-Arg-AMC); format: biochemical; conditions: Z-Arg-Arg-AMC substrate, pH 6.0, n.i. = no inhibition; for IC50: read-out: Cathepsin B, inhibitory activity as IC50 value
Experimental: Cathepsin B inhibition assay. Cathepsin B inhibition assay was determined according to Hiwasa et al. (loc. cit.) with minor changes. Cathepsin B was purchased from Sigma Aldrich (C0150) and stored in 50 mM sodium acetate, 1 mM EDTA, pH 5 (adjusted with acetic acid). Cathepsin B was activated by preincubation at 40° C. for 10 min in assay buffer (0.1 M sodium acetate 1.3 mM EDTA, pH 6.0 adjusted with acetic acid, 2 μM DTT, 2.6 mM cysteine and 0.05% Triton X100). […] Final concentration of cathepsin B was 0.1 mg/ml. […] After stopping the reaction with 85 μL buffer containing 100 mM sodium monochlor acetate, 30 mM sodium acetate, 70 mM acetic acid, the hydrolyzed substrate was detected at an excitation wavelength of 380 nm and a fluorescence wavelength of 450 nm, using a fluorophotometer. 1 μL of 1.5 mM leupeptin was used as enzyme inhibition control.

[5] = tested on: ficin; assay: Protease assay with azocasein: ficin; format: biochemical; conditions: azocasein substrate, pH 7.2, n.i. = no inhibition; for IC50: read-out: Ficin, inhibitory activity as IC50 value
Experimental: as §1, §2, §3, §4

[6] = target: T5, pepsin (Sus scrofa, UniProt P00791); assay: Protease assay with azocasein: pepsin; format: biochemical; conditions: azocasein substrate, pH 3.5; n.i. = no inhibition
T5 construct: purchased Sigma-Aldrich P6887
Experimental: as §1, §2, §3, §4

[7] = tested on: trypsin; conditions: reported in literature for known compounds; read-out: Trypsin, reported inhibitory activity as IC50 value; cited from earlier work
[8] = target: T3, papain; conditions: reported in literature for known compounds; read-out: Papain, reported inhibitory activity as IC50 value; cited from earlier work
[9] = target: T4, Cathepsin B; conditions: reported in literature; cells printed in nM; read-out: Cathepsin B, reported inhibitory activity as IC50 value; cited from earlier work
[10] = tested on: ficin (Sigma-Aldrich, F6008); assay: Protease assay with azocasein, ficin; format: biochemical; conditions: 2 mM iodacetamide
Experimental: (§5) Protease Assays with azocasein: Protease inhibition assays against the proteases papain, ficin, trypsin, pepsin and thermolysin were performed according to the protocol of Garcia-Carreño (loc. cit.) in a reaction buffer containing 25 mM TRIS-HCl, 0.15 M NaCl, pH 7.2 (or pH 3.5 for aspartic protease). The total assay volume was 47 μL buffer with 2 μL of the protease as well as 1 μL of suitable inhibitor or corresponding inhibitor solvent (100% MeoH or water). […]
(§6) Inhibitors were dissolved in 100% MeOH or water and added to the assay (1 μL); final concentration: 2% MeOH. […] Extract absorbance controls were performed using inhibitor (1 μL in MeOH) without protease. […]
(§7) Samples were incubated with buffer and suitable inhibitor (or without for negative controls) for 1 h at r.t. and the reaction was started afterward by adding 50 μl of […] substrate and incubated for 1 h at 37° C. […] The hydrolyzed substrate supernatant was incubated in an equal volume of 0.5 N NaOH for 5 min and the absorbance was measured at 440 nm. […]
as §4

[11] = target: T6, papain (Sigma-Aldrich, P4762) (Carica papaya, UniProt P00784); assay: Protease assay with azocasein, papain; format: biochemical; conditions: 2 mM iodacetamide; read-out: inhibition of enzyme activity (control inhibitor), papain
T6 sequence (P00784 134-345): T3 sequence (P00784 134-345)
Experimental: as §5, §6, §7, §4

[12] = target: hCatL (Homo sapiens, UniProt P07711); assay: Fluorescence-based activity test against cathepsin L (Cbz-Phe-Arg-AMC); format: biochemical; design: dose or concentration left out as unconfirmed
Experimental: (§8) Activity Tests Against Cathepsin B, Cathepsin L and Rhodesain.
(§9) The determination of the activity of the inhibitors against hCatL and RD was performed in fluorescence-based assays in accordance with the assays described in Giroud et al., ChemMedChem 12 (2017), 257-270 and Schirmeister, Bioorganic & Medicinal Chemistry Letters 27 (2017) 45-50. The biological activities against hCatL were determined using Cbz-Phe-Arg-AMC as substrate, which releases AMC (7-amino-4-methylcoumarin) after amide bond cleavage by the enzyme. The proteolytic activity of the enzyme can be monitored spectrophotometrically by the increase of fluorescence intensity by release of AMC (emission at 460 nm) upon hydrolysis. An initial screen at an inhibitor concentration […] was performed to identify ligands with an inhibition of hCatL and RD higher than 80%.

[13] = target: T4, Cathepsin B; assay: Activity test against cathepsin B (initial screen, Table 5); format: biochemical; design: dose or concentration left out as unconfirmed
Experimental: as §8, §9

[14] = target: Rhodesain (Trypanosoma brucei rhodesiense, UniProt Q95PM0); assay: Fluorescence-based activity test against rhodesain; format: biochemical; conditions: initial screen at an inhibitor concentration of 20 mM; ni = no inhibition
Experimental: as §8
Rhodesain is a central cysteine protease from Trypanosoma brucei rhodesiense and a potential drug target against human African trypanosomiasis (sleeping sickness).
as §9

[15] = tested on: pepsin (Sigma-Aldrich P6887); assay: Protease assay with azocasein, pepsin; format: biochemical; conditions: 1 μg/mL pepstatin A
Experimental: as §5, §6, §7, §4

[16] = tested on: trypsin (Thermo Fisher, 23266); assay: Protease assay with azocasein, trypsin; format: biochemical; conditions: 2 mM PMFS
Experimental: as §5, §6, §7, §4

[17] = tested on: thermolysin (Sigma-Aldrich, P1512); conditions: 10 mM EDTA
Experimental: as §5, §6, §7, §4

T1 sequence (P00800 233-548): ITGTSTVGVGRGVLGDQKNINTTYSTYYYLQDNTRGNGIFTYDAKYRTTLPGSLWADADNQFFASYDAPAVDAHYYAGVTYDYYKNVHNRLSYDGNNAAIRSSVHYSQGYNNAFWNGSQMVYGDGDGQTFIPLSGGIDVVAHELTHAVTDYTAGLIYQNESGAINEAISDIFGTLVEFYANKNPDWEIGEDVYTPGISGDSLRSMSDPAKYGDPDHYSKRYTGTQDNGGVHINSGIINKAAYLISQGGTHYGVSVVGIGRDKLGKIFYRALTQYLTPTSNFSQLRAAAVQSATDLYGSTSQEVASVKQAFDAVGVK
T5 sequence (P00791 60-385): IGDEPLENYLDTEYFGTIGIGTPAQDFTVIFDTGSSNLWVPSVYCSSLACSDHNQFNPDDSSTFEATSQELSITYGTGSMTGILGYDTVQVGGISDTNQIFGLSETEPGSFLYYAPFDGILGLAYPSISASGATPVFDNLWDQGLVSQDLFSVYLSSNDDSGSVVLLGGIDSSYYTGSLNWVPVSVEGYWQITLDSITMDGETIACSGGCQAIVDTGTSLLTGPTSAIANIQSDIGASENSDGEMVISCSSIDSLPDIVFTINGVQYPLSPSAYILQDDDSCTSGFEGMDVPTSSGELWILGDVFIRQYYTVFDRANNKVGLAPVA
Sequence of Rhodesain (Q95PM0 entry or part of it): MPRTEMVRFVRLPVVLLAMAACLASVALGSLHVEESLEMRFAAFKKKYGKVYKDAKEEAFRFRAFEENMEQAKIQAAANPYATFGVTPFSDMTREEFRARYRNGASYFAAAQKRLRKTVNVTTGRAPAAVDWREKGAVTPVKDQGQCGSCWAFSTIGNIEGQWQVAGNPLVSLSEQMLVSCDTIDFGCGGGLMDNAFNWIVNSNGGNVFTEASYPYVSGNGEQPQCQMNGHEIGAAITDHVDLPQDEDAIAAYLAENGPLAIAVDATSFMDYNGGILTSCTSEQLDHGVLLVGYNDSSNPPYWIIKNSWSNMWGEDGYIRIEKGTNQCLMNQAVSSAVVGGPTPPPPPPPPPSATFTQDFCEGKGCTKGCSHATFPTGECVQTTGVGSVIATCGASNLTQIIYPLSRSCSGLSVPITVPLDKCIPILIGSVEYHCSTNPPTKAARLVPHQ
Sequence of hCatL (P07711 114-333): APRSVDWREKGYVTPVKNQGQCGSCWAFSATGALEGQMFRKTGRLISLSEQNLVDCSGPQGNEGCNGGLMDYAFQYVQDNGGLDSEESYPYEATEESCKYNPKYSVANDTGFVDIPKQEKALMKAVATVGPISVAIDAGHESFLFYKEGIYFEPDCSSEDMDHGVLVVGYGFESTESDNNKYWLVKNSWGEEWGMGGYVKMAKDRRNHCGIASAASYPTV

CCCCCCCC(=O)N[C@@H](Cc1ccc(O)cc1)C(=O)N[C@@H](CCCNC(=N)N)CCC(=O)OC [(S), 2,3-17,18-Tetrahydrobarnesin A methyl ester, reference compound]
Thermolysin, inhibitory activity as IC50 value [1]: n.i.
Trypsin, inhibitory activity as IC50 value [2]: n.i.
Papain, inhibitory activity as IC50 value [3]: n.i.
Cathepsin B, inhibitory activity as IC50 value [4]: n.i.
Ficin, inhibitory activity as IC50 value [5]: n.i.
Pepsin, inhibitory activity as IC50 value [6]: n.i.

CC(=O)N[C@@H](CC(C)C)C(=O)N[C@@H](CC(C)C)C(=O)N[C@H](C=O)CCCNC(=N)N [Leupeptin, reference compound]
IC50 [7]: 2.2 µM
IC50 [8]: 0.86 µM

CC(C)[C@H](NC(=O)c1ccc(O)cc1)C(=O)N[C@H](C(=O)N[C@H](C=O)CCCNC(=N)N)C(C)C [Tokaramide A]
IC50 [9]: 62.4 nM

NC(=O)CI [iodacetamide]
inhibition of enzyme activity (control inhibitor), ficin [10]: > 95%
inhibition at 2000 µM [11]: > 95%

Cystatin
IC50 [7]: 3.5 µM
IC50 [8]: 0.029 µM

CCCCCCCC(=O)N[C@@H](Cc1ccc(O)cc1)C(=O)N[C@H](/C=C/C(=O)O)CCCNC(=N)N [17,18-Dihydrobarnesin (4), 17,18-Dihydrobarnesin]
Thermolysin, inhibitory activity as IC50 value [1]: n.i.
Trypsin, inhibitory activity as IC50 value [2]: n.i.
IC50 [3]: 4.78 µM
IC50 [4]: 0.0876 µM
IC50 [5]: 1.16 µM
Pepsin, inhibitory activity as IC50 value [6]: n.i.

CCCCC/C=C/C(=O)N[C@H](Cc1ccc(O)cc1)C(=O)N[C@H](/C=C/C(=O)O)CCCNC(=N)N [drawing 49]
inhibition [12]: 7%
inhibition [13]: 5%
Rhodesain (%) inhibition [14]: ni

CCCCC/C=C/C(=O)N[C@@H](Cc1ccc(O)cc1)C(=O)N[C@H](/C=C/C(=O)O)CCCNC(=N)N [Barnesin A (1), Barnesin A]
Thermolysin, inhibitory activity as IC50 value [1]: n.i.
Trypsin, inhibitory activity as IC50 value [2]: n.i.
IC50 [3]: 16 µM
IC50 [4]: 0.0917 µM
IC50 [5]: 3.43 µM
Pepsin, inhibitory activity as IC50 value [6]: n.i.

CC(C)CC(=O)N[C@H](Cc1ccc(O)cc1)C(=O)N[C@H](C(=O)N[C@@H](C=O)Cc1ccccc1)C(C)C [YM 51084] (Isovaleryl-[dY]-Val-[dF]-aldehyde)
IC50 [9]: 12 nM
IC50 [8]: 2.2 µM

CCCCC/C=C/C(=O)N[C@@H](Cc1ccc(O)cc1)C(=O)N[C@H](/C=C/C(=O)OCC)CCCN=C(N)N [Barnesin A ethyl ester (3), (E)-Oct-2-enoyl-tyrosine-vinylogous arginine ethyl ester]
Thermolysin, inhibitory activity as IC50 value [1]: n.i.
Trypsin, inhibitory activity as IC50 value [2]: n.i.
IC50 [3]: 2.89 µM
IC50 [4]: 0.024 µM
IC50 [5]: 3.43 µM
Pepsin, inhibitory activity as IC50 value [6]: n.i.

CC(C)CC(=O)N[C@H](C(=O)N[C@H](C(=O)N[C@@H](CC(C)C)[C@@H](O)CC(=O)N[C@@H](C)C(=O)N[C@@H](CC(C)C)[C@@H](O)CC(=O)O)C(C)C)C(C)C [pepstatin A] (Isovaleryl-VV[Sta]A[Sta]-OH)
inhibition of enzyme activity (control inhibitor), pepsin [15]: > 95%

CCCCCCCC(=O)N[C@@H](Cc1ccc(O)cc1)C(=O)N[C@@H](CCCNC(=N)N)CCC(=O)O [(R), 2,3,17,18-Tetrahydrobarnesin A, reference compound]
Thermolysin, inhibitory activity as IC50 value [1]: n.i.
Trypsin, inhibitory activity as IC50 value [2]: n.i.
Papain, inhibitory activity as IC50 value [3]: n.i.
Cathepsin B, inhibitory activity as IC50 value [4]: n.i.
Ficin, inhibitory activity as IC50 value [5]: n.i.
Pepsin, inhibitory activity as IC50 value [6]: n.i.

O=S(=O)(F)Cc1ccccc1 [PMFS]
inhibition of enzyme activity (control inhibitor), trypsin [16]: > 95%

O=C(O)CN(CCN(CC(=O)O)CC(=O)O)CC(=O)O [EDTA]
inhibition of enzyme activity (control inhibitor), thermolysin [17]: > 95%
